Test results from patent publication US7482008B1, “Human T cell reactive feline protein (TRFP) isolated from house dust and uses therefor” (Merck Patent GmbH, priority 1989, dated 2009).

What was measured:
[1] = tested on: human IgE (cat allergic patient plasma); assay: Dot blot assay of human IgE binding; details: percent of cat allergic patients with positive IgE binding
Procedure: TRFP was coated at 2, 0.2 and 0.02 μg/dot and the peptides at 10, 1 and 0.1 μg/dot. Wells were then washed with 200 μl PBS. After equilibration of blots with Tween solution, (Tris-HCL; pH 7.5 0.025M NaCl 0.17 m Tween-20 0.5%) all sections were blocked with 1% nonfat dry milk, 1% fetal calf serun/Tween solution for 1-1.5 hour. Patient plasma was used at 10% (v/v) in 1% milt/Tween solution and preabsorbed on blank strips of nitrocellulose for 1 hour. After preabsorption, the diluted patient plasma sample was incubated with the antigen bearing dot blot overnight at room temperature (RT). Nitrocellulose dot blot was incubated in biotinylated goat anti-human IgE (1:2500) in Tween solution for 2 hours RT. After washing, the sections were incubated in 1 μCi ^125I-Streptavidin, 1 hour. Following removal of unbound label by extensive washing, the blots were exposed to film for 16 hours.

human IgE [2] = assay: SDS/PAGE Western immunoblot of human IgE binding, plasma from patient #417; details: patient #417 plasma
Procedure: Western immunoblot analysis of the peptides produced in above was performed. The concentration of all protein samples (e.g., TRFP, recombinant chain 1 of TRFP, recombinant chain 2 of TRFP, peptide XYZ, peptide XZY, peptide YXZ, peptide YZX, peptide ZXY and peptide ZYX) for gel electrophoresis was determined by the BCA method (Pierce Co.). All protein samples were loaded on the gel at 5 μg/lane except TRFP at 10 μg/lane. Protein separation was carried out on a 15% acrylamide gel, and transfer was performed by electroblotting at 1.5 Amps for 1.5 hours onto nitrocellulose paper (Schleicher and Schuell, 0.1 microns) in a Hoeffer apparatus according to the protocol of Towbin, H., T. Stachlin, and J. Gordon, PNAS 76:4350 (1979). Proteins were rinsed in blot solution (25 mM Tris-HCl 7.5, 0.171 M NaCl and 0.5 ml/liter Tween 20). The blot was then blocked for one hour in blocking solution (1% milk in blot solution). Plasma from patient #417, used as a primary antibody source, was diluted in blocking solution to 10% and preabsorbed for 1.5 hours with unused nitrocellulose (2 cm×15 cm). The prepared human plasma was then incubated overnight on an orbital shaker with the protein blot section of interest. Following the first antibody incubation the blot section was washed three times, each wash involved a fifteen minute incubation in blot solution. The second antibody, specific for human IgE (biotinylated goat anti-human IgE, KPL Inc.), was diluted 1:2500 in blot solution and the incubation proceeded for two hours. Excess second antibody was subsequently removed by three 15 minute incubations with blot solution. ^125I Iodinated streptavidin (Amersham) was diluted 1:2500 in blot solution and incubated with blots for 1 hour, at 2 μCi in a 50 ml incubation volume. Blot sections were then washed with blot solution until the detectable radioactivity in the waste solution decreased to background levels. The blot section was then wrapped in saran wrap and exposed to film overnight with a cronex intensifying screen at −80° C.

human IgE [3] = assay: Western blot and ELISA of human IgE binding to affinity purified TRFP
Source text: A protein preparation was extracted from the contents of vacuum cleaner bags by a method based on that of M. D. Chapman and co-workers. Chapman, M. D. et al., J. Immunol., 140(3): 812-818 (1988). Monoclonal antibody reactive with Fel d I, produced by Chapman and co-workers, was used to identify a protein in the preparation. de Groot, H. et al., J. Allergy Clin. Immunol., 82:778-786 (1988). Selected monoclonal antibodies (designated 1G9 and 6F9) that recognize Fel d I native protein were used to affinity purify a protein, which is referred to as human T cell reactive feline protein (TRFP) (also referred to as VCB or vacuum cleaner bag protein) from a house dust sample. This was carried out, using known techniques, by producing the desired monoclonal antibody, isolating it in large quantities from ascites and immobilizing it on Sepharose 4B (Pharmacia). The protein preparation was extracted from vacuum cleaner bags of house dust obtained from several homes with cats. Aqueous vacuum cleaner bag extract was first subjected to gel filtration and decolorization and, subsequently, affinity chromatography purification. Aqueous vacuum cleaner bag extract was passed over the monoclonal antibody-containing column and a protein species was eluted. […] The affinity purified TRFP was subjected to a number of protein chemical procedures to derive primary amino sequence data. […]

mice = assay: Biweekly subcutaneous administration, peptide specific antibody in sera; format: in vivo, mouse; details: for antibodies specific for peptide (IgG or IgE) in sera: 100 μg s.c. in PBS on days 0, 14, 28 and 56, alone or in combination; for IgG antibodies to peptide, sera dilution: animals injected with the peptides in CFA
Procedure: This animal model experiment was designed to simulate a human treatment protocol such as that described in Example 30. Mice were administered subcutaneous injections of 100 μg peptide/100 μl PBS on days 0, 14, 28 and 56. Mice were administered peptide X or peptide Y either alone or in combination. […] There was no specific binding above background levels for IgG or IgE.

Fel d I primed mice = assay: Peptide Y s.c. in Fel d I primed mice, IL-2 production of lymph node cells; format: in vivo, mouse; details: injected subcutaneously up to fifty-six days earlier; compared to control mice
CD4+ T cells = assay: Cytokine production of purified CD4+ T cells from peptide Y pre-injected mice; format: in vivo, mouse; details: CD4+ T cells from pre-injected mice compared to control CD4+ cells
Balb/c mice = assay: Oral rChain 1, IgG and IgE response after repeated challenge, protocol 5; format: in vivo, mouse; details: oral 250 μg days -7, -5, -2
Procedure: Two groups of five age-matched Balb/c were fed on days −7, −5 and −2 with 250 μg rChain 1 (Group 1) or PBS (Group 2). On day 0, the mice were challenged with 10 μg rChain 1 on alum administered i.p., and on days 47 and 78, the mice were again challenged with 25 μg rChain 1 on alum administered i.p. The antibody response was measured by ELISA (see below).
Subsequent incubations were for 1 hour at 37° C. The wells were washed with PBS containing 0.05% Tween 20 and blocked with 0.5% gelatin in PBS. Sera were diluted in PBS as noted in the individual assay and were incubated in triplicate on the washed plates. After incubation and washing, the bound mouse antibody was detected by incubation with biotinylated goat anti-mouse IgG (Southern Biotechnology Ass.). Streptavidin conjugated to horseradish peroxidase (Southern Biotechnology Associates) was added to detect antigen-bound biotinylated antibody complexes. 3,3′,5,5′-Tetramethylbenzidine peroxidase substrate (Kirkegaard & Perry Labs) was used according to directions supplied, and resulting OD (450 nm) values were determined using an ELISA reader (Bio-Tek model 310, Winooski, Vt.). […]
Antigen-bound IgE was detected similarly except using a biotinylated rat monoclonal antibody specific for mouse IgE (Baniyash et al. (1984) Eur. J. Immunol. 14:799-807). […]

Substance: TRFP: human T cell reactive feline protein affinity purified from house dust; two covalently linked chains
- Positive Binding [1]: 100%
- IgE binding, Western immunoblot (human IgE [2]): reactivity
- human IgE binding (human IgE [3]): bind human IgE

Substance: peptide X: amino acid residues 7-30 from chain 1 of TRFP (SEQ. ID. NO: 17); Table 2 lists Fel 8-3 as 7-33 (KRDVDLFLTGTPDEYVEQVAQYKALPV)
- antibodies specific for peptide (IgG or IgE) in sera (mice): no antibodies specific for either peptide
- IgG antibodies to peptide, sera dilution (mice): 1/4500

Substance: peptide Y: amino acid residues 29-55 from chain 1 of TRFP (SEQ. ID. NO: 18) (KALPVVLENARILKNCVDAKMTEEDKE)
- IL-2 production of lymph node cells (Fel d I primed mice): decreased IL-2 production
- reduction in the production of the cytokines (IL-2, IL-3 and IL-4) (CD4+ T cells): greater than 75%
- antibodies specific for peptide (IgG or IgE) in sera (mice): no antibodies specific for either peptide
- IgG antibodies to peptide, sera dilution (mice): 1/4500

Substance: recombinant chain 1: recombinant TRFP chain 1 expressed in E. coli
- specific IgG and IgE responses after repeated challenge with rChain 1 in alum (Balb/c mice): decreases specific IgG and IgE responses
- IgE binding, Western immunoblot (human IgE [2]): strong IgE binding
